Values of other authors, collected in patent US20170348285A1, “TREATMENT OF DRY EYE DISEASE WITH PARASYMPATHETIC & ANTI-SYMPATHETIC AGENTS” (priority 2016, published 2017).

Tests used:
[1] = systemic administration
[2] = topical formulation
[3] = topical 0.05%, treatment for two months

| floppy iris syndrome (during eye surgery) | retrograde ejaculation (in vivo) | spasms of accommodation [2] | change in pupil size [3] | SMILES | efficacy as treatment of dry eye disease [1] | tear production [3] |
| --- | --- | --- | --- | --- | --- | --- |
| can cause the floppy iris syndrome | can cause retrograde ejaculation |  |  | CCOc1ccccc1OCCN[C@H](C)Cc1ccc(OC)c(S(N)(=O)=O)c1 [tamsulosin] |  |  |
|  |  | cause spasms of accommodation | without any change in pupil size | CC[C@@H]1C(=O)OC[C@@H]1Cc1cncn1C [pilocarpine] | effective systemic treatment of dry eye disease | stimulate tear production |
